Here are results for 17 molecules from PubChem BioAssay AID192 (DTP/NCI, 2004).

SMILES strings stand for the structures. “And” between values parts separate entries of the source, which are not always exact repeats. Identical values can stand only once. Inconclusive results and toxic doses are left out.

This experiment deals with BDF1 mice, B16 melanoma ip, median survival T/C. Kind of experiment: NCI In Vivo Anticancer Drug Screen. Data for tumor model B16 Melanoma (intraperitoneal) in B6D2F1 (BDF1) mice. Conditions: endpoint: median survival time, higher = longer survival. The gist of the method:
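Transplantable tumor model; survival or tumor size measured; reported as T/C, treated over vehicle control.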

Setting [1] is: dose: 100.0 mg/kg/injection, schedule: Q01DX009 (ip), vehicle: saline with Tween-80.
Where [2] appears, read: dose: 200.0 mg/kg/injection, schedule: Q01DX009 (ip), vehicle: saline with Tween-80.
The mark [3] stands for this setting: dose: 400.0 mg/kg/injection, schedule: Q01DX009 (ip), vehicle: saline with Tween-80.
Where [4] appears, read: dose: 25.0 mg/kg/injection, schedule: Q01DX009 (ip), vehicle: saline with Tween-80.
The mark [5] stands for this setting: dose: 50.0 mg/kg/injection, schedule: Q01DX009 (ip), vehicle: saline with Tween-80.
The mark [6] stands for this setting: dose: 12.5 mg/kg/injection, schedule: Q01DX009 (ip), vehicle: Klucel (hydroxypropylcellulose) (HPC).
The mark [7] stands for this setting: dose: 25.0 mg/kg/injection, schedule: Q01DX009 (ip), vehicle: Klucel (hydroxypropylcellulose) (HPC).
The mark [8] stands for this setting: dose: 50.0 mg/kg/injection, schedule: Q01DX009 (ip), vehicle: Klucel (hydroxypropylcellulose) (HPC).
Setting [9] is: dose: 100.0 mg/kg/injection, schedule: Q01DX009 (ip), vehicle: Klucel (hydroxypropylcellulose) (HPC).
The mark [10] stands for this setting: dose: 200.0 mg/kg/injection, schedule: Q01DX009 (ip), vehicle: Klucel (hydroxypropylcellulose) (HPC).
Where [11] appears, read: dose: 12.5 mg/kg/injection, schedule: Q01DX009 (ip), vehicle: saline with Tween-80.
[12] abbreviates: dose: 100.0 mg/kg/injection, schedule: Q01DX009 (ip), vehicle: saline.
The mark [13] stands for this setting: dose: 200.0 mg/kg/injection, schedule: Q01DX009 (ip), vehicle: saline.

As for `CN(C(=O)c1cccnc1)c1ccccc1`, the T/C runs as follows: under setting [1], 109 % of control; under setting [2], 118 % of control; under setting [3], 111 % of control.
`Cc1ccc(Cl)cc1NC(=O)c1ccc([N+](=O)[O-])cc1`: the T/C reads like this: under setting [4], 112 % of control; under setting [5], 110 % of control; under setting [1], 96 % of control.
Take `C[C@]12CCC(=O)C=C1CC[C@@H]1[C@@H]2[C@@H](O)C[C@@]2(C)[C@H]1CC[C@]2(O)C(=O)CO`: the T/C is 87 % of control (dose: 40.0 mg/kg/injection, schedule: Q02DX009 (ip), vehicle: Klucel (hydroxypropylcellulose) (HPC)); 102 % of control (dose: 80.0 mg/kg/injection, schedule: Q02DX009 (ip), vehicle: Klucel (hydroxypropylcellulose) (HPC)); 92 % of control (dose: 160.0 mg/kg/injection, schedule: Q02DX009 (ip), vehicle: Klucel (hydroxypropylcellulose) (HPC)).
Consider `CNc1nc(NC)nc(NC)n1`, for which the T/C by setting is: under setting [6], 106 % of control; under setting [7], 118 % of control; under setting [8], 100 % of control; under setting [9], 109 % of control.
Take `O=c1[nH]c(=O)n(C2CC(O)C(CO)O2)cc1I` (centres undefined): the T/C is 106 % of control under setting [4]; 118 % of control under setting [5]; 123 % of control under setting [1]; 116 % of control under setting [2]; 120 % of control under setting [3]; 150 % of control (dose: 800.0 mg/kg/injection, schedule: Q01DX009 (ip), vehicle: saline with Tween-80).
Regarding `CCOC(=O)NC1=C(N2CC2)C(=O)C(NC(=O)OCC)=C(N2CC2)C1=O`, the T/C by setting is: (dose: 0.13 mg/kg/injection, schedule: Q03HX016 (ip), vehicle: water) 96 % of control; (dose: 0.25 mg/kg/injection, schedule: Q01DX009 (ip), vehicle: saline) 100 % of control; (dose: 0.25 mg/kg/injection, schedule: Q03HX016 (ip), vehicle: water) 93 % of control; (dose: 0.5 mg/kg/injection, schedule: Q01DX009 (ip), vehicle: saline) 110 % of control; (dose: 0.75 mg/kg/injection, schedule: Q01DX009 (ip), vehicle: saline) 120 % of control; (dose: 1.0 mg/kg/injection, schedule: Q01DX001 (oral), vehicle: water) 96 % of control. The T/C was 91 % of control (dose: 1.0 mg/kg/injection, schedule: Q03HX024 (ip), vehicle: water); 162 % of control (dose: 3.0 mg/kg/injection, schedule: Q01DX009 (ip), vehicle: saline with Tween-80); 160 % of control (dose: 3.0 mg/kg/injection, schedule: Q01DX009 (ip), vehicle: saline); 194 % of control (dose: 5.0 mg/kg/injection, schedule: Q01DX005 (ip), vehicle: saline with Tween-80); 86 % of control (dose: 16.0 mg/kg/injection, schedule: Q01DX009 (oral), vehicle: water).
For `CCOC(=O)CNC(=O)Sc1ccc(C(C)(C)C)cc1`, the T/C runs as follows: under setting [6], 97 % of control; under setting [7], 101 % of control; under setting [8], 104 % of control; under setting [9], 106 % of control; under setting [10], 106 % of control; (dose: 400.0 mg/kg/injection, schedule: Q01DX009 (ip), vehicle: Klucel (hydroxypropylcellulose) (HPC)) 120 % of control.
With `CC(C)N1C(=O)C=C(c2ccc([N+](=O)[O-])cc2)C1=O`, the T/C reads like this: under setting [11], 95 % of control; under setting [5], 99 % of control.
Turning to `O=C1C=CC(=O)N1Cc1ccco1`, the T/C (dose: 65.0 mg/kg/injection, schedule: Q01DX009 (ip), vehicle: saline) was 108 % of control; the T/C under setting [12] was 103 % of control and 117 % of control; the T/C (dose: 150.0 mg/kg/injection, schedule: Q01DX009 (ip), vehicle: saline) was 114 % of control and 117 % of control; the T/C under setting [13] was 113 % of control; the T/C (dose: 400.0 mg/kg/injection, schedule: Q01DX009 (ip), vehicle: saline) was 113 % of control.
In the case of `COc1cc(C2c3cc4c(cc3CC3COC(=O)C32)OCO4)cc(OC)c1O` (centres undefined), the T/C runs as follows: (dose: 0.5 mg/kg/injection, schedule: Q01DX009 (ip), vehicle: saline with Tween-80) 98 % of control; (dose: 1.0 mg/kg/injection, schedule: Q01DX009 (ip), vehicle: saline with Tween-80) 104 % of control; (dose: 2.0 mg/kg/injection, schedule: Q01DX009 (ip), vehicle: saline with Tween-80) 123 % of control; (dose: 4.0 mg/kg/injection, schedule: Q01DX009 (ip), vehicle: saline with Tween-80) 106 % of control.
As for `O=C(/C=C(\C(=O)c1ccccc1)c1ccccc1)c1ccccc1`, the T/C is 100 % of control (dose: 100.0 mg/kg/injection, schedule: Q04DX003 (ip), vehicle: Klucel (hydroxypropylcellulose) (HPC)); 100 % of control (dose: 200.0 mg/kg/injection, schedule: Q04DX003 (ip), vehicle: Klucel (hydroxypropylcellulose) (HPC)); 103 % of control (dose: 400.0 mg/kg/injection, schedule: Q04DX003 (ip), vehicle: Klucel (hydroxypropylcellulose) (HPC)).
For `Clc1cc(Cl)c(C[N+]23CN4CN(CN(C4)C2)C3)cc1Cl`, the T/C runs as follows: (dose: 25.0 mg/kg/injection, schedule: Q01DX009 (ip), vehicle: saline) 117 % of control; (dose: 50.0 mg/kg/injection, schedule: Q01DX009 (ip), vehicle: saline) 108 % of control; under setting [12], 111 % of control; under setting [13], 122 % of control.
Consider `COc1ccc(Cl)cc1NC(=O)c1ccccc1C(=O)O`, for which the T/C reads like this: under setting [9], 100 % of control; under setting [10], 94 % of control.
Turning to `C[C@]12CCC(=O)C=C1CC[C@@H]1[C@@H]2C(=O)C[C@]2(C)C3=CC(=O)O[C@H]3C[C@@H]12`, the T/C reads like this: under setting [11], 100 % of control; under setting [4], 100 % of control.
As to `CCOC12c3ccccc3N(S(C)(=O)=O)C(C)C1C2(Br)Br` (centres undefined), the T/C was 104 % of control (dose: 75.0 mg/kg/injection, schedule: Q04DX003 (ip), vehicle: Klucel (hydroxypropylcellulose) (HPC)); 87 % of control (dose: 150.0 mg/kg/injection, schedule: Q04DX003 (ip), vehicle: Klucel (hydroxypropylcellulose) (HPC)); 107 % of control (dose: 300.0 mg/kg/injection, schedule: Q04DX003 (ip), vehicle: Klucel (hydroxypropylcellulose) (HPC)).
In the case of `CC(=O)CCc1ccc(O)cc1`, the T/C under setting [1] was 90 % of control, the T/C under setting [2] was 100 % of control and the T/C under setting [3] was 92 % of control.
Regarding `C=C(C)C12CC(C)C34OC5(CCCCCCCC(C)C6C(C)C(OC(=O)c7ccccc7)C(O)(C(O)C7(COC(=O)CCCCCCCCCCCCCCC)OC7C3C1O5)C64)O2` (centres undefined), the T/C was 107 % of control (dose: 1.5 micrograms/kg/injection, schedule: Q01DX009 (ip), vehicle: saline); 102 % of control (dose: 1.9 micrograms/kg/injection, schedule: Q01DX009 (ip), vehicle: Klucel (hydroxypropylcellulose) (HPC)); 100 % of control (dose: 3.1 micrograms/kg/injection, schedule: Q01DX009 (ip), vehicle: saline); 88 % of control (dose: 3.8 micrograms/kg/injection, schedule: Q01DX009 (ip), vehicle: Klucel (hydroxypropylcellulose) (HPC)); 104 % of control (dose: 6.2 micrograms/kg/injection, schedule: Q01DX009 (ip), vehicle: saline); 98 % of control (dose: 7.5 micrograms/kg/injection, schedule: Q01DX009 (ip), vehicle: Klucel (hydroxypropylcellulose) (HPC)). Also, the T/C by setting is: (dose: 12.5 micrograms/kg/injection, schedule: Q01DX009 (ip), vehicle: saline) 95 % of control; (dose: 15.0 micrograms/kg/injection, schedule: Q01DX009 (ip), vehicle: Klucel (hydroxypropylcellulose) (HPC)) 87 % of control; (dose: 25.0 micrograms/kg/injection, schedule: Q01DX009 (ip), vehicle: saline) 102 % of control; (dose: 50.0 micrograms/kg/injection, schedule: Q01DX009 (ip), vehicle: saline) 96 % of control.
